Measurements: patent US20100316655A1, “COMPOUNDS WITH MDR1-INVERSE ACTIVITY” (priority 2008, published 2010)

How the values were obtained:
[1] = test system: KB-3-1 adenocarcinoma cells; test: MTT cytotoxicity assay, parental P-gp-negative KB-3-1 cells; format: cell-based, human
Method: (§1) Exemplary compounds were also tested against the KB-V1 adenocarcinoma cell line that expresses high levels of P-gp (the protein product of MDR1). […] MDR1 selectivity is determined by the ratio of IC50 against KB-3-1 cells divided by its IC50 against KB-V1 cells.
(§2) This example describes evaluation of compounds using the MTT cytotoxicity assay. Cell survival was measured by the MTT (3-(4,5-dimethylthiazol-2-yl)-2,5-diphenyltetrazolium bromide) assay as previously described by Ludwig, J. A. et al. Selective toxicity of NSC73306 in MDR1-positive cells as a new strategy to circumvent multidrug resistance in cancer. […] Briefly, cells were seeded in […] of growth medium at a density of 5000 cells/well in 96-well plates and allowed to establish for 24 hours, at which time serially diluted drugs were added in an additional […] growth medium. Cells were then incubated for 72 hours at 37° C. in humidified 5% CO2, at which time the growth media was drawn, and replaced with MTT in IMDM growth media and incubated for 4 hours. The MTT solution was then drawn from the wells, and […] acidified ethanol solution was added to each well and after 15 minutes absorption at 560 nm was measured.

[2] = test system: KB-V1 adenocarcinoma cell line; test: MTT cytotoxicity assay, P-gp (MDR1) expressing KB-V1 cells; MDR1 selectivity vs KB-3-1; format: cell-based, human; details: for IC50: MTT, 72 hours; for MDR1 select. / MDR1 selectivity: ratio of IC50 against KB-3-1 divided by IC50 against KB-V1; for MDR1 selectivity: >1 = MDR1-inverse activity; for MDR1-inverse selectivity (in words): Example 3, Table 1, KB-V1 vs KB-3-1
Method: as §1, §2

[3] = Homo sapiens, KB 3-1, Table 2, 72 hours, unit inferred
[4] = Homo sapiens, KB-V1, Table 2, unit inferred
[5] = Homo sapiens, Table 1, 72 hours, KB-3-1 (P-gp-negative)
[6] = Homo sapiens, Table 1, KB-V1 (high P-gp)
[7] = Table 2, 72 hours, unit inferred

Structure (SMILES): O=C1Nc2ccccc2/C1=N/NC(=S)Nc1c(F)cc(F)cc1F [Compound M13, 1-Isatin-4-(2′,4′,6′-trifluorophenyl)thiosemicarbazone]
- IC50 [1, 3]: 38.4 µM
- IC50 [2, 4]: 7.28 µM
- MDR1 select. ([2]; Table 2): 5.27

Structure (SMILES): Cc1ccc(NC(=S)N/N=C2\C(=O)Nc3ccccc32)cc1 [Compound M16, 1-Isatin-4-(4′-methylphenyl)thiosemicarbazone]
- IC50 [1, 3]: 24 µM
- IC50 [2, 4]: 2.6 µM
- MDR1 select. ([2]; Table 2): 9.23

Structure (SMILES): O=C1Nc2ccc(Br)cc2/C1=N/NC(=S)Nc1ccc([N+](=O)[O-])cc1 [drawing 23]
- IC50 [1, 5]: 28.4 ± 5.2 µM
- IC50 [2, 6]: 4 ± 0.6 µM
- MDR1 selectivity ([2]; Table 1): 7.1

Structure (SMILES): COc1ccc(NC(=S)N/N=C/c2ccccn2)cc1 [Compound 10, 1-(2′-Pyridinecarboxaldehyde)-4-(4′-methoxyphenyl)-3-thiosemicarbazone]
- MDR1-inverse selectivity (in words) [2]: MDR1-inverse selectivity

Structure (SMILES): O=C1Nc2ccccc2C1=NNC(=S)Nc1ccc(Cl)cc1 [Compound M12, 1-Isatin-(4′-chlorophenyl)-3-thiosemicarbazone]
- IC50 [1, 7]: 13.4 µM
- IC50 ([2]; Table 2, unit inferred): 4.99 µM
- MDR1 select. ([2]; Table 2): 2.68

Structure (SMILES): NC(=S)N/N=C1\C(=O)Nc2ccccc21
- IC50 [1, 5]: > 50 µM
- IC50 [2, 6]: > 50 µM

Structure (SMILES): NC(=O)N/N=C1\C(=O)Nc2ccccc21
- IC50 [1, 5]: > 50 µM
- IC50 [2, 6]: > 50 µM

Structure (SMILES): COc1ccc(NC(=S)NN)cc1
- IC50 [1, 5]: > 50 µM
- IC50 [2, 6]: > 50 µM

Structure (SMILES): COc1ccc(NC(=S)N/N=C2\C(=O)Nc3ccc(F)cc32)cc1 [drawing 34]
- IC50 [1, 5]: 39.3 ± 23.3 µM
- IC50 [2, 6]: 5.2 ± 1.1 µM
- MDR1 selectivity ([2]; Table 1): 7.5

Structure (SMILES): O=C1Nc2ccccc2/C1=N/NC(=S)Nc1ccc(F)cc1 [Compound M14, 1-Isatin-4-(4′-fluorophenyl)thiosemicarbazone]
- IC50 [1, 3]: 14.2 µM
- IC50 [2, 4]: 1.92 µM
- MDR1 select. ([2]; Table 2): 7.36

Structure (SMILES): O=C1Nc2ccc([N+](=O)[O-])cc2C1=NNC(=S)Nc1ccccc1 [NSC716766, 1-(5′-Nitroisatin)-4-phenyl-3-thiosemicarbazone]
- MDR1-inverse selectivity (in words) [2]: MDR1-inverse selectivity

Structure (SMILES): NC(=S)N/N=C/c1ncccc1N
- IC50 [1, 5]: 1.4 ± 2.5 µM
- IC50 [2, 6]: 5.9 ± 2.6 µM
- MDR1 selectivity ([2]; Table 1): 0.2

Structure (SMILES): CN(C)c1ccc(NC(=S)NN=C2C(=O)Nc3ccccc32)cc1 [Compound M3, 1-Isatin-4-(4′-(dimethylamino)phenyl)-3-thiosemicarbazone]
- IC50 [1, 7]: 6.95 µM
- IC50 ([2]; Table 2, unit inferred): 2.23 µM
- MDR1 select. ([2]; Table 2): 2.99

Structure (SMILES): COc1ccc(NC(=S)N/N=C2\C(=O)Nc3c2ccc2ccccc32)cc1
- IC50 [1, 5]: 4.4 ± 3.6 µM
- IC50 [2, 6]: 30.3 ± 5.9 µM
- MDR1 selectivity ([2]; Table 1): 0.1

Structure (SMILES): O=C1Nc2ccccc2/C1=N/NC(=S)Nc1ccc([N+](=O)[O-])cc1 [Compound M17, 1-Isatin-4-(4′-nitrophenyl)thiosemicarbazone]
- IC50 [1, 3]: 17.2 µM
- IC50 [2, 4]: 2.07 µM
- MDR1 select. ([2]; Table 2): 8.27

Structure (SMILES): COc1ccc(NC(=S)N/N=C/c2ccc(NC(C)=O)cc2)cc1
- IC50 [1, 5]: > 50 µM
- IC50 [2, 6]: > 50 µM

Structure (SMILES): COc1ccc(NC(=S)N/N=C2\CCc3ccccc32)cc1
- IC50 [1, 5]: > 50 µM
- IC50 [2, 6]: > 50 µM

Structure (SMILES): O=C1Nc2ccc(Br)cc2/C1=N/NC(=S)Nc1ccc(F)cc1 [NSC716771, 1-(5′-Bromoisatin)-4-(4′-fluorophenyl)-3-thiosemicarbazone]
- MDR1-inverse selectivity (in words) [2]: MDR1-inverse selectivity

Structure (SMILES): O=C1Nc2ccc(F)cc2/C1=N/NC(=S)Nc1ccc(F)cc1 [Compound M10, 1-(5′-fluoroisatin)-4-(4′-fluorophenyl)-3-thiosemicarbazone]
- IC50 [1, 3]: 3.72 µM
- IC50 [2, 4]: 0.91 µM
- MDR1 select. ([2]; Table 2): 4.07

Structure (SMILES): C=CCNC(=S)N/N=C1\C(=O)Nc2ccccc21 [drawing 40]
- IC50 [1, 5]: 26.1 ± 2.6 µM
- IC50 [2, 6]: 20.7 ± 7.7 µM
- MDR1 selectivity ([2]; Table 1): 1.3

Structure (SMILES): COc1ccc(NC(=S)N/N=C2\C(=O)Nc3ccc([N+](=O)[O-])cc32)cc1 [Compound 12, 1-(5′-Nitroisatin)-4-(4′-methoxyphenyl)-3-thiosemicarbazone]
- MDR1-inverse selectivity (in words) [2]: MDR1-inverse selectivity

Structure (SMILES): O=C1Nc2ccc(Br)cc2/C1=N/NC(=S)Nc1ccc([N+](=O)[O-])cc1 [NSC716772, 1-(5′-Bromoisatin)-4-(4′-nitrophenyl)-3-thiosemicarbazone]
- MDR1-inverse selectivity (in words) [2]: MDR1-inverse selectivity

Structure (SMILES): COc1ccc(NC(=S)N/N=C2\C(=O)N(C)c3ccccc32)cc1 [Compound 8, 1-(N-methylisatin)-4-(4′-methoxyphenyl)-3-thiosemicarbazone]
- MDR1-inverse selectivity (in words) [2]: MDR1-inverse selectivity

Structure (SMILES): COc1ccc(NC(=S)N/N=C2\C(=O)Nc3ccc(F)cc32)cc1 [Compound 7, 1-(5′-Fluoroisatin)-4-(4′-methoxyphenyl)-3-thiosemicarbazone]
- MDR1-inverse selectivity (in words) [2]: MDR1-inverse selectivity
